Measured values published in PubChem BioAssay (NCI).
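The compound was tested at five concentrations on cells cultured in 96-well plates, with a 48-hour exposure period. GI50: concentration for 50% inhibition of growth. The concentration for full growth arrest is given as TGI.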

Assays:
Assay in all cases: NCI-60 cell line screen, 48 h
[1] = test system: SF-539 CNS
[2] = test system: HCT-15 colon
[3] = test system: A498 renal
[4] = test system: M14 melanoma
[5] = test system: SK-OV-3 ovarian
[6] = test system: NCI-H226 lung
[7] = test system: TK-10 renal
[8] = test system: SF-268 CNS
[9] = test system: MDA-MB-435
[10] = test system: SR leukemia
[11] = test system: OVCAR-4 ovarian
[12] = test system: IGROV1 ovarian
[13] = test system: CAKI-1 renal
[14] = test system: SK-MEL-5 melanoma
[15] = test system: SW-620 colon
[16] = test system: KM12 colon
[17] = test system: COLO 205 colon
[18] = test system: UACC-257 melanoma
[19] = test system: HT29 colon
[20] = test system: ACHN renal
[21] = test system: UACC-62 melanoma
[22] = test system: NCI-H23 lung
[23] = test system: SN12C renal
[24] = test system: DU-145 prostate
[25] = test system: HCT-116 colon
[26] = test system: NCI-H460 lung
[27] = test system: HL-60(TB) leukemia
[28] = test system: SF-295 CNS
[29] = test system: U251 CNS
[30] = test system: PC-3 prostate
[31] = test system: MALME-3M melanoma
[32] = test system: HS 578T breast
[33] = test system: 786-0 renal
[34] = test system: SNB-19 CNS
[35] = test system: RXF 393 renal
[36] = test system: NCI-H522 lung
[37] = test system: MDA-MB-231 breast
[38] = test system: LOX IMVI melanoma
[39] = test system: SK-MEL-28 melanoma
[40] = test system: SK-MEL-2 melanoma
[41] = test system: RPMI-8226 leukemia
[42] = test system: OVCAR-5 ovarian
[43] = test system: NCI/ADR-RES ovarian
[44] = test system: OVCAR-3 ovarian
[45] = test system: K-562 leukemia
[46] = test system: CCRF-CEM leukemia
[47] = test system: UO-31 renal
[48] = test system: T-47D breast
[49] = test system: OVCAR-8 ovarian
[50] = test system: SNB-75 CNS
[51] = test system: A549 NSCLC
[52] = test system: EKVX NSCLC
[53] = test system: BT-549 breast
[54] = test system: HOP-92 NSCLC
[55] = test system: HOP-62 NSCLC
[56] = test system: MOLT-4 leukemia
[57] = test system: HCC-2998 colon
[58] = test system: MCF7 breast

Structure (SMILES): Cc1nc2ccc(-n3ncc(C(=O)c4cc5ccccc5[nH]4)c3N)cc2[nH]1
- GI50 [1]: 1.17 µM
- TGI [1]: 10.9 µM
- GI50 [2]: 0.884 µM
- TGI [2]: 36.6 µM
- GI50 [3]: 0.496 µM
- TGI [3]: 54.3 µM
- GI50 [4]: 12.2 µM
- TGI [4]: 63.4 µM
- GI50 [5]: 14 µM
- TGI [5]: > 100 µM
- GI50 [6]: 10.5 µM
- TGI [6]: 49.9 µM
- GI50 [7]: 18.4 µM
- TGI [7]: > 100 µM
- GI50 [8]: 6.63 µM
- TGI [8]: > 100 µM
- GI50 [9]: 14.5 µM
- TGI [9]: > 100 µM
- GI50 [10]: 2.82 µM
- TGI [10]: 31.2 µM
- GI50 [11]: 16 µM
- TGI [11]: > 100 µM
- GI50 [12]: 9.74 µM
- TGI [12]: > 100 µM
- GI50 [13]: 7.16 µM
- TGI [13]: > 100 µM
- GI50 [14]: 5.46 µM
- TGI [14]: 18.4 µM
- GI50 [15]: 7.78 µM
- TGI [15]: > 100 µM
- GI50 [16]: 3.53 µM
- TGI [16]: 43.1 µM
- GI50 [17]: 4.77 µM
- TGI [17]: 29.1 µM
- GI50 [18]: 26.6 µM
- TGI [18]: > 100 µM
- GI50 [19]: 5.13 µM
- TGI [19]: 66.9 µM
- GI50 [20]: 5.73 µM
- TGI [20]: > 100 µM
- GI50 [21]: 4.24 µM
- TGI [21]: 24.9 µM
- GI50 [22]: 15.9 µM
- TGI [22]: > 100 µM
- GI50 [23]: 12.7 µM
- TGI [23]: > 100 µM
- GI50 [24]: 13.1 µM
- TGI [24]: > 100 µM
- GI50 [25]: 4.51 µM
- TGI [25]: > 100 µM
- GI50 [26]: 2.39 µM
- TGI [26]: 40.6 µM
- GI50 [27]: 11.9 µM
- TGI [27]: 45.9 µM
- GI50 [28]: 4.87 µM
- TGI [28]: 44.8 µM
- GI50 [29]: 1.44 µM
- TGI [29]: > 100 µM
- GI50 [30]: 9.65 µM
- TGI [30]: > 100 µM
- GI50 [31]: 13.9 µM
- TGI [31]: 83.1 µM
- GI50 [32]: 10.5 µM
- TGI [32]: > 100 µM
- GI50 [33]: 9.44 µM
- TGI [33]: 69.4 µM
- GI50 [34]: 15.4 µM
- TGI [34]: > 100 µM
- GI50 [35]: 2.47 µM
- TGI [35]: 15.7 µM
- GI50 [36]: 10.1 µM
- TGI [36]: 33.3 µM
- GI50 [37]: 10.6 µM
- TGI [37]: 40.7 µM
- GI50 [38]: 2.57 µM
- TGI [38]: 15.2 µM
- GI50 [39]: 8.78 µM
- TGI [39]: > 100 µM
- GI50 [40]: 25.9 µM
- TGI [40]: 88.5 µM
- GI50 [41]: 8.1 µM
- TGI [41]: 54.7 µM
- GI50 [42]: 16 µM
- TGI [42]: > 100 µM
- GI50 [43]: 11.9 µM
- TGI [43]: 80.2 µM
- GI50 [44]: 11.2 µM
- TGI [44]: > 100 µM
- GI50 [45]: 3.07 µM
- TGI [45]: > 100 µM
- GI50 [46]: 9.24 µM
- TGI [46]: 96 µM
- GI50 [47]: 10 µM
- TGI [47]: 33.2 µM
- GI50 [48]: 6.74 µM
- TGI [48]: 45.2 µM
- GI50 [49]: 7.08 µM
- TGI [49]: > 100 µM
- GI50 [50]: 0.945 µM
- TGI [50]: > 100 µM
- GI50 [51]: 8.46 µM
- TGI [51]: > 100 µM
- GI50 [52]: 20.9 µM
- TGI [52]: > 100 µM
- GI50 [53]: 5.43 µM
- TGI [53]: 38.6 µM
- GI50 [54]: 21.9 µM
- TGI [54]: 98.9 µM
- GI50 [55]: 4.9 µM
- TGI [55]: 51.6 µM
- GI50 [56]: 5.99 µM
- TGI [56]: 56.1 µM
- GI50 [57]: 14.4 µM
- TGI [57]: > 100 µM
- GI50 [58]: 4.52 µM
- TGI [58]: > 100 µM
